Data reported in patent publication US10597388B2, “Pyridazinone herbicides” (FMC CORPORATION, priority 2014, dated 2020).

What was measured:
Assay type in all cases: in vivo
[1] = tested on: barnyardgrass (Echinochloa crus-galli); test: Test A greenhouse herbicide test, pre- and postemergence
Summary of the method: (§1)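 Seeds in loam–sand blend received a preemergence directed soil spray; plants at 2–10 cm, one- to two-leaf stage, received postemergence sprays. Compounds in a non-phytotoxic solvent with surfactant. After about 10 d in a greenhouse, injury rated visually versus untreated controls on a 0–100 scale (100 = complete control).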

kochia (Kochia scoparia) = test: as above
Summary of the method: as §1

[2] = tested on: wheat (Triticum aestivum); test: as above; conditions: Postemergence; for Plant response rating, Wheat: 125 g ai/ha, 0 to 100 scale where 0 is no effect and 100 is complete control; for Wheat plant response rating: 500 g ai/ha, 0 to 100 scale, 0 is no effect, 100 is complete control
Summary of the method: as §1

[3] = tested on: foxtail, giant (giant foxtail, Setaria faberii); test: as above
Summary of the method: as §1

[4] = tested on: ragweed (common ragweed, Ambrosia elatior); test: as above
Summary of the method: as §1

[5] = tested on: pigweed (Amaranthus retroflexus); test: as above
Summary of the method: as §1

corn (Zea mays) = test: as above; conditions: Postemergence; for Plant response rating, Corn: 125 g ai/ha, 0 to 100 scale where 0 is no effect and 100 is complete control; for Corn plant response rating: 500 g ai/ha, 0 to 100 scale, 0 is no effect, 100 is complete control
Summary of the method: as §1

[6] = tested on: ryegrass, Italian (Italian ryegrass, Lolium multiflorum); test: as above
Summary of the method: as §1

[7] = tested on: mustard, wild (wild mustard, Sinapis arvensis); test: Test D controlled growth environment herbicide test, pre- and postemergence; conditions: for Mustard, Wild plant response rating / Plant response rating (scale of 0 to 100), Mustard, Wild: 31 g ai/ha
Description: Seeds of plant species selected from bluegrass (annual bluegrass, Poa annua), blackgrass (Alopecurus myosuroides), Canada thistle (Cirsium arvense), canarygrass (Phalaris minor), chickweed (common chickweed, Stellaria media), geranium, cutleaf (cutleaf geranium, Geranium dissectum), galium (catchweed bedstraw, Galium aparine), bromegrass, downy (downy bromegrass, Bromus tectorum), field poppy (Papaver rhoeas), field violet (Viola arvensis), foxtail, green (green foxtail, Setaria viridis), deadnettle (henbit deadnettle, Lamium amplexicaule), ryegrass, Italian (Italian ryegrass, Lolium multiflorum), kochia (Kochia scoparia), lambsquarters (Chenopodium album), oilseed rape (Brassica napus), pigweed (Amaranthus retroflexus), chamomile (scentless chamomile, Matricaria inodora), Russian thistle (Salsola kali), speedwell (bird's-eye speedwell, Veronica persica), barley, spring (spring barley, Hordeum vulgare), wheat, spring (spring wheat, Triticum aestivum), buckwheat, wild (wild buckwheat, Polygonum convolvulus), mustard, wild (wild mustard, Sinapis arvensis), oat, wild (wild oat, Avena fatua), radish, wild (wild radish, Raphanus raphanistrum), windgrass (Apera spica-venti), barley, winter (winter barley, Hordeum vulgare), and wheat, winter (winter wheat, Triticum aestivum) were planted into a silt loam soil and treated preemergence with test chemicals formulated in a non-phytotoxic solvent mixture which included a surfactant.
At the same time, these species were planted in pots containing Redi-Earth® planting medium (Scotts Company, 14111 Scottslawn Road, Marysville, Ohio 43041) comprising spaghnum peat moss, vermiculite, wetting agent and starter nutrients and treated with postemergence applications of the test chemicals formulated in the same manner. Plants ranged in height from 2 to 18 cm (1- to 4-leaf stage). Treated plants and controls were maintained in a controlled growth environment for 14 to 21 d after which time all species were compared to controls and visually evaluated. Plant response ratings, summarized in Table D, are based on a scale of 0 to 100 where 0 is no effect and 100 is complete control. A dash (-) response means no test result.

[8] = Postemergence, 125 g ai/ha, 0 to 100 scale where 0 is no effect and 100 is complete control
[9] = Postemergence, 500 g ai/ha, 0 to 100 scale, 0 is no effect, 100 is complete control
[10] = Preemergence, 125 g ai/ha, 0 to 100 scale where 0 is no effect and 100 is complete control
[11] = Preemergence, 500 g ai/ha, 0 to 100 scale, 0 no effect, 100 complete control
[12] = Postemergence, scale 0 to 100 (0 no effect, 100 complete control)
[13] = Postemergence, 125 g ai/ha, visual rating on scale 0 (no effect) to 100 (complete control), 14 to 21 d
[14] = Postemergence, 250 g ai/ha, scale 0 to 100 (0 no effect, 100 complete control)
[15] = Preemergence, 62 g ai/ha, scale 0 to 100 (0 no effect, 100 complete control)
[16] = Preemergence, 125 g ai/ha, scale 0 to 100 (0 no effect, 100 complete control)
[17] = Preemergence, 250 g ai/ha, scale 0 to 100, 0 no effect, 100 complete control
[18] = postemergence, 62 g ai/ha, scale 0 to 100, 0 no effect, 100 complete control
[19] = Preemergence, 500 g ai/ha, 0 to 100 scale where 0 is no effect and 100 is complete control

SMILES | Plant response rating, Barnyardgrass [1, 8] | Barnyardgrass plant response rating [1, 9] | Barnyardgrass plant response rating [1, 10] | Plant response rating, Barnyardgrass [1, 11] | Plant response rating, Kochia (kochia (Kochia scoparia); [8]) | Kochia plant response rating (kochia (Kochia scoparia); [9]) | Kochia plant response rating (kochia (Kochia scoparia); [10]) | Plant response rating, Wheat [2] | Wheat plant response rating [2] | Plant response rating, Foxtail, Giant [3, 8] | Foxtail, Giant plant response rating [3, 9] | Foxtail, Giant plant response rating [3, 10] | Plant response rating, Ragweed [4, 8] | Ragweed plant response rating [4, 9] | Ragweed plant response rating [4, 10] | Plant response rating, Pigweed [5, 8] | Pigweed plant response rating [5, 9] | Pigweed plant response rating [5, 10] | Plant response rating, Corn (corn (Zea mays)) | Corn plant response rating (corn (Zea mays)) | other results
Cc1ccc2sc(C)c(-c3c(OC(=O)OC(C)C)c(C)nn(C)c3=O)c2c1 [Compound 66] | 20 | 90 | 20 | 70 | 90 | 90 | 60 | 0 | 0 | 70 | 90 | 60 | 70 | 90 | 80 | 80 | 90 | 100 | 0 | 0 | Plant response rating, Kochia (kochia (Kochia scoparia); [11]): 70; Plant response rating, Foxtail, Giant [3, 11]: 90; Plant response rating, Ragweed [4, 11]: 90; Plant response rating, Pigweed [5, 11]: 100; Plant response rating, Ryegrass, Italian [6, 8]: 90; Ryegrass, Italian plant response rating [6, 9]: 100; Ryegrass, Italian plant response rating [6, 10]: 90; Plant response rating, Ryegrass, Italian [6, 11]: 100; Mustard, Wild plant response rating [7, 12]: 10; Plant response rating, Mustard, Wild [7, 13]: 55; Plant response rating, Mustard, Wild [7, 14]: 70; Plant response rating (scale of 0 to 100), Mustard, Wild ([7]; Preemergence): 0; Plant response rating, Mustard, Wild [7, 15]: 0; Plant response rating, Mustard, Wild [7, 16]: 0; Plant response rating, Mustard, Wild [7, 17]: 0; Plant response rating, Mustard, Wild [7, 18]: 40
Cc1ccc2ccccc2c1-c1c(OC(=O)OC(C)C)c(C)nn(C)c1=O [Compound 72] | 20 | 60 | 10 | 100 | 60 | 90 | 50 | 20 | 70 | 30 | 90 | 70 | 70 | 90 | 90 | 90 | 90 | 100 | 20 | 40 | Plant response rating, Kochia (kochia (Kochia scoparia); [19]): 100; Plant response rating, Foxtail, Giant [3, 19]: 100; Plant response rating, Ragweed [4, 19]: 90; Plant response rating, Pigweed [5, 19]: 100; Plant response rating, Ryegrass, Italian [6, 8]: 100; Ryegrass, Italian plant response rating [6, 9]: 100; Ryegrass, Italian plant response rating [6, 10]: 100; Plant response rating, Ryegrass, Italian [6, 19]: 100; Mustard, Wild plant response rating [7, 12]: 85; Plant response rating, Mustard, Wild [7, 13]: 100; Plant response rating, Mustard, Wild [7, 14]: 100; Plant response rating (scale of 0 to 100), Mustard, Wild ([7]; Preemergence): 0; Plant response rating, Mustard, Wild [7, 15]: 25; Plant response rating, Mustard, Wild [7, 16]: 60; Plant response rating, Mustard, Wild [7, 17]: 80; Plant response rating, Mustard, Wild [7, 18]: 100
